The source of these data is patent US9820497B2, “Astaxanthin-containing pet foods” (FUJI CHEMICAL INDUSTRY CO., LTD, priority 2003, dated 2017).

One data set has as its system dogs. Description: Health conditions of the dogs before and during administration. The data set is classed as in vivo, dog. As to conditions: four dogs, before and during the 4 weeks of administration. The protocol:
(§1) Four dogs were fed only with the same commercially available dog food for 3 months or more, and thereafter, two AstaReal tablets (manufactured by Natureal Corporation, containing 0.67 mg of free astaxanthin per tablet in terms of free astaxanthin) per day were given to the dogs at dinner for 4 weeks. […] The feces discharged before and after administration of astaxanthin were collected. Samples were prepared each by taking a piece from the top portion, middle portion and end portion in the same amount and mixing these pieces. The samples were placed in a shielded vessel of 100 ml in volume and kept in dark and used in tests within 24 hours.

Data set [1] in a line: Feces odor test (odor tester KALMOR-Σ) before and after administration. The class given is in vivo, dog. As to conditions: four dogs, 4 weeks of administration; conclusion from Table 3. The method, then:
as §1
Odor of the samples was measured by an odor tester (KALMOR-Σ, manufactured by Kalmor Co.) in a room maintained at 22° C. To explain more specifically, the odor of an airtight vinyl bag of 280 mm×200 mm containing no sample was measured as an initial value by inserting a test probe. Then, 100 mg of sample was weighed, placed in the vinyl bag and stand still for 15 minutes. The odor of the vinyl bag having the sample placed therein was measured (measured value). The value of the odor was obtained by subtracting the initial value from the measured value.

The conditions of data set [2]: as high as β-carotene; cited from earlier work.
For data set [3] the following is noted: known; cited from earlier work.

For the molecule `CC1=C(/C=C/C(C)=C/C=C/C(C)=C/C=C/C=C(C)/C=C/C=C(C)/C=C/C2=C(C)C(=O)C(O)CC2(C)C)C(C)(C)CC(O)C1=O` (stereo not drawn) [astaxanthin, 3,3′-dihydroxy-β,β-carotene-4,4′-dione], the “health conditions (diarrhea, fatigue)” value with dogs is “healthy conditions without exhibiting diarrhea and fatigue”. Also, the “odor of the excrement” value in data set [1] was “clearly is decreased”. The “antioxidative action relative to β-carotene” value in data set [2] is listed as “about 40 times”. The mutagenicity entry in data set [3] is reported as “no mutagenicity is observed”.
